{"source": "PubChem BioAssay (NCI)", "assay_in_all_cases": "DTP human tumour cell line panel, 48 h", "key": {"[1]": {"tested_on": "SR leukemia"}, "[2]": {"tested_on": "COLO 205 colon"}, "[3]": {"tested_on": "NCI-H23 lung"}, "[4]": {"tested_on": "IGROV1 ovarian"}, "[5]": {"tested_on": "SNB-75 CNS"}, "[6]": {"tested_on": "UACC-257 melanoma"}, "[7]": {"tested_on": "SK-MEL-5 melanoma"}, "[8]": {"tested_on": "NCI-H460 lung"}, "[9]": {"tested_on": "UACC-62 melanoma"}, "[10]": {"tested_on": "OVCAR-5 ovarian"}, "[11]": {"tested_on": "HS 578T breast"}, "[12]": {"tested_on": "SNB-19 CNS"}, "[13]": {"tested_on": "SF-268 CNS"}, "[14]": {"tested_on": "RPMI-8226 leukemia"}, "[15]": {"tested_on": "SK-OV-3 ovarian"}, "[16]": {"tested_on": "T-47D breast"}, "[17]": {"tested_on": "HT29 colon"}, "[18]": {"tested_on": "786-0 renal"}, "[19]": {"tested_on": "HOP-92 NSCLC"}, "[20]": {"tested_on": "HCC-2998 colon"}, "[21]": {"tested_on": "ACHN renal"}, "[22]": {"tested_on": "OVCAR-3 ovarian"}, "[23]": {"tested_on": "U251 CNS"}, "[24]": {"tested_on": "A549 NSCLC"}, "[25]": {"tested_on": "HCT-116 colon"}, "[26]": {"tested_on": "DU-145 prostate"}, "[27]": {"tested_on": "HCT-15 colon"}, "[28]": {"tested_on": "SF-295 CNS"}}, "note": "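Step 1: Grow cells in 96-well plates. Step 2: Expose to compound for 48 hours at 5 concentrations. Step 3: Interpolate endpoints linearly; if unreached, use highest concentration. At the GI50, growth is halved. TGI: total growth inhibition.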"}
{"smiles": "CCOC(=O)Nc1ccc2c3c(cccc13)-c1ccccc1-2", "values": [{"measurement": "GI50", "setting": "[1]", "value": 4.36, "unit": "µM"}, {"measurement": "TGI", "setting": "[1]", "value": "> 100", "unit": "µM"}, {"measurement": "GI50", "setting": "[2]", "value": 4.25, "unit": "µM"}, {"measurement": "TGI", "setting": "[2]", "value": "> 100", "unit": "µM"}, {"measurement": "GI50", "setting": "[3]", "value": 98.1, "unit": "µM"}, {"measurement": "TGI", "setting": "[3]", "value": "> 100", "unit": "µM"}, {"measurement": "GI50", "setting": "[4]", "value": 1.98, "unit": "µM"}, {"measurement": "TGI", "setting": "[4]", "value": "> 100", "unit": "µM"}, {"measurement": "GI50", "setting": "[5]", "value": 8.97, "unit": "µM"}, {"measurement": "TGI", "setting": "[5]", "value": "> 100", "unit": "µM"}, {"measurement": "GI50", "setting": "[6]", "value": "> 100", "unit": "µM"}, {"measurement": "TGI", "setting": "[6]", "value": "> 100", "unit": "µM"}, {"measurement": "GI50", "setting": "[7]", "value": 3.96, "unit": "µM"}, {"measurement": "TGI", "setting": "[7]", "value": "> 100", "unit": "µM"}, {"measurement": "GI50", "setting": "[8]", "value": 3.99, "unit": "µM"}, {"measurement": "TGI", "setting": "[8]", "value": "> 100", "unit": "µM"}, {"measurement": "GI50", "setting": "[9]", "value": 3.71, "unit": "µM"}, {"measurement": "TGI", "setting": "[9]", "value": "> 100", "unit": "µM"}, {"measurement": "GI50", "setting": "[10]", "value": "> 100", "unit": "µM"}, {"measurement": "TGI", "setting": "[10]", "value": "> 100", "unit": "µM"}, {"measurement": "GI50", "setting": "[11]", "value": 3.91, "unit": "µM"}, {"measurement": "TGI", "setting": "[11]", "value": "> 100", "unit": "µM"}, {"measurement": "GI50", "setting": "[12]", "value": 23.5, "unit": "µM"}, {"measurement": "TGI", "setting": "[12]", "value": "> 100", "unit": "µM"}, {"measurement": "GI50", "setting": "[13]", "value": 33.3, "unit": "µM"}, {"measurement": "TGI", "setting": "[13]", "value": "> 100", "unit": "µM"}, {"measurement": "GI50", "setting": "[14]", "value": 5.51, "unit": "µM"}, {"measurement": "TGI", "setting": "[14]", "value": "> 100", "unit": "µM"}, {"measurement": "GI50", "setting": "[15]", "value": 9.18, "unit": "µM"}, {"measurement": "TGI", "setting": "[15]", "value": "> 100", "unit": "µM"}, {"measurement": "GI50", "setting": "[16]", "value": 2.57, "unit": "µM"}, {"measurement": "TGI", "setting": "[16]", "value": "> 100", "unit": "µM"}, {"measurement": "GI50", "setting": "[17]", "value": 3.67, "unit": "µM"}, {"measurement": "TGI", "setting": "[17]", "value": "> 100", "unit": "µM"}, {"measurement": "GI50", "setting": "[18]", "value": 8, "unit": "µM"}, {"measurement": "TGI", "setting": "[18]", "value": "> 100", "unit": "µM"}, {"measurement": "GI50", "setting": "[19]", "value": "> 100", "unit": "µM"}, {"measurement": "TGI", "setting": "[19]", "value": "> 100", "unit": "µM"}, {"measurement": "GI50", "setting": "[20]", "value": 9.56, "unit": "µM"}, {"measurement": "TGI", "setting": "[20]", "value": "> 100", "unit": "µM"}, {"measurement": "GI50", "setting": "[21]", "value": 9.73, "unit": "µM"}, {"measurement": "TGI", "setting": "[21]", "value": "> 100", "unit": "µM"}, {"measurement": "GI50", "setting": "[22]", "value": 2.72, "unit": "µM"}, {"measurement": "TGI", "setting": "[22]", "value": 8.92, "unit": "µM"}, {"measurement": "GI50", "setting": "[23]", "value": 5.52, "unit": "µM"}, {"measurement": "TGI", "setting": "[23]", "value": "> 100", "unit": "µM"}, {"measurement": "GI50", "setting": "[24]", "value": 6.03, "unit": "µM"}, {"measurement": "TGI", "setting": "[24]", "value": "> 100", "unit": "µM"}, {"measurement": "GI50", "setting": "[25]", "value": 4.22, "unit": "µM"}, {"measurement": "TGI", "setting": "[25]", "value": "> 100", "unit": "µM"}, {"measurement": "GI50", "setting": "[26]", "value": 7.56, "unit": "µM"}, {"measurement": "TGI", "setting": "[26]", "value": "> 100", "unit": "µM"}, {"measurement": "GI50", "setting": "[27]", "value": 4.32, "unit": "µM"}, {"measurement": "TGI", "setting": "[27]", "value": "> 100", "unit": "µM"}, {"measurement": "GI50", "setting": "[28]", "value": 2.82, "unit": "µM"}, {"measurement": "TGI", "setting": "[28]", "value": 7.87, "unit": "µM"}]}
